Laboratory results as given in patent US7112698B2, “4-(c2-6alkoxy)-substituted chalcones as therapeutic agents” (Spear Therapeutics Limited, priority 2001, dated 2006).
Where two headings read alike, the source gives them in different places.

What was measured:
TCDD-induced MCF-7 cells = assay: TCDD-induced MCF-7 cell line cytotoxicity assay, MTT; assay type: cell-based, human; settings: for IC50: Homo sapiens, MCF7, MCF-7 cells induced with 10 nM TCDD for 24 hours, 96 hours, MTT; for Tumour Selectivity Differential Factor: MCF-7 IC50 versus TCDD-induced MCF-7 IC50 (Table 1); for more toxic to “tumour” cells than to “normal” cells: TCDD-induced MCF-7 versus MCF-7
Description: (§1) CYP1A1 and CYP1B1 enzyme activity is induced by TCDD (tetrachlorodibenzodioxin (Dioxin)) in breast tumour MCF-7 cells (see, e.g., Sutter et al., 1994). CYP1B1 is expressed in a variety of human tumours, and can be inducible by TCDD in numerous cell types including breast, liver, lung, and kidney (see, e.g., Murray et al., 1997). CYP1B1 is known to catalyse estradiol 4-hydroxylation metabolism. In untreated culture, the constitutive rate of estradiol E2 metabolism in MCF-7 cells is minimal. However, treatment with TCDD causes a marked increase in the rate of E2 metabolism (see, e.g., Spink et al., 1994). […] Therefore the cytotoxicity of compounds in non-induced MCF-7 cells correlates to the cytotoxicity of compounds against normal cells, whilst the cytotoxicity of compounds against TCDD-induced MCF-7 cells correlates to the cytotoxicity of compounds against real tumours that express CYP1B1.
(§2) The cytotoxicity of compounds in non-induced MCF-7 cells correlates to the cytotoxicity of compounds against normal cells, whilst the cytotoxicity of compounds against TCDD-induced MCF-7 cells correlates to the cytotoxicity of compounds against real tumours that express CYP1B1.
Cells were maintained in RPMI 1640 with Glutamax 1 (Life Technologies) with 10% (v/v) heat inactivated foetal calf serum (Hybrimax. Sigma), at 37° C., 5% CO2/95% air with 100% humidity and passaged using trypsin/EDTA. 1×10^3 cells were plated out in 100 μl medium per well of 96-well flat-bottomed plates (Fisher). After 4 hours to allow adherance, 100 μl of medium containing TCDD (British Greyhound Chromatography; 10 μM stock in DMSO (dimethylsulfoxide)) or medium with 0.2% (v/v) DMSO as control was added to each well to give a final concentration of 10 nM TCDD, 0.1% (v/v) DMSO, for 24 hours to allow maximal CYP expression. The medium was then carefully aspirated and 100 μl fresh medium added. Within 30 minutes test compound was added in quadruplicate in 100 μl medium (with or without inhibitors) at double the final concentration from 100 mM stock in DMSO to give a final concentration of not more than 0.1% (v/v) DMSO, or DMSO solvent alone at 0.1% (v/v) as control. The cells were then allowed to grow on for 96 hours to give 80–90% confluence in the control wells. 50 μl MTT (Thiazol blue, Sigma) at 2 mg/ml in Dulbecco's phosphate buffered saline-A, was then added to each well for 3 hours. All medium was aspirated, then the formazan product generated by viable cells was solubilized with 150 μl DMSO. Plates were vortexed and the absorbance at 540 nm determined using a plate reader. Results were expressed as the percentage of 100% (control) proliferation and the IC50 calculated using the line of best fit for a sigmoidal dose response curve with variable slope using Graphpad Prizm software. All determinations were carried out in at least triplicate. […]

MCF-7 cells = assay: MCF-7 cell line (non-induced) cytotoxicity assay, MTT; assay type: cell-based; settings: Homo sapiens, MCF7
Description: as §1, §2
Cells were maintained in RPMI 1640 with Glutamax 1 (Life Technologies) with 10% (v/v) heat inactivated foetal calf serum (Hybrimax. Sigma), at 37° C., 5% CO2/95% air with 100% humidity and passaged using trypsin/EDTA. 1×10^3 cells were plated out in 100 μl medium per well of 96-well flat-bottomed plates (Fisher). After 4 hours to allow adherance, 100 μl of medium containing TCDD (British Greyhound Chromatography; 10 μM stock in DMSO (dimethylsulfoxide)) or medium with 0.2% (v/v) DMSO as control was added to each well to give a final concentration of 10 nM TCDD, 0.1% (v/v) DMSO, for 24 hours to allow maximal CYP expression. The medium was then carefully aspirated and 100 μl fresh medium added. Within 30 minutes test compound was added in quadruplicate in 100 μl medium (with or without inhibitors) at double the final concentration from 100 mM stock in DMSO to give a final concentration of not more than 0.1% (v/v) DMSO, or DMSO solvent alone at 0.1% (v/v) as control. The cells were then allowed to grow on for 96 hours to give 80–90% confluence in the control wells. 50 μl MTT (Thiazol blue, Sigma) at 2 mg/ml in Dulbecco's phosphate buffered saline-A, was then added to each well for 3 hours. All medium was aspirated, then the formazan product generated by viable cells was solubilized with 150 μl DMSO. Plates were vortexed and the absorbance at 540 nm determined using a plate reader. Results were expressed as the percentage of 100% (control) proliferation and the IC50 calculated using the line of best fit for a sigmoidal dose response curve with variable slope using Graphpad Prizm software. All determinations were carried out in at least triplicate.

[1] = test system: MCF-10A normal breast cell line; assay: MCF-10A normal cell line cytotoxicity assay; assay type: cell-based; settings: Homo sapiens, without TCDD
Protocol: (§3) Cells were maintained in RPMI 1640 with Glutamax 1 (Life Technologies) with 10% (v/v) heat inactivated foetal calf serum (Hybrimax. Sigma), at 37° C., 5% CO2/95% air with 100% humidity and passaged using trypsin/EDTA. 1×10^3 cells were plated out in 100 μl medium per well of 96-well flat-bottomed plates (Fisher). […] The medium was then carefully aspirated and 100 μl fresh medium added. […] 50 μl MTT (Thiazol blue, Sigma) at 2 mg/ml in Dulbecco's phosphate buffered saline-A, was then added to each well for 3 hours. All medium was aspirated, then the formazan product generated by viable cells was solubilized with 150 μl DMSO. Plates were vortexed and the absorbance at 540 nm determined using a plate reader. […] All determinations were carried out in at least triplicate.
(§4) This cell culture based assay is performed using the two cell lines MDA-468 and MCF-10A. The MDA468 cell line is an advanced breast cancer cell line, whilst the MCF-10A cell line is a normal breast cell line.
(§5) This assay was performed using the two cell lines MDA-468 and MCF-10A according to the procedure described above for the MCF-7 assay, but without the addition of TCDD.
(§6) The tumour selectivity differential factor (TSDF) is calculated by dividing the IC50 obtained from the MCF-10A data by the IC50 obtained from the MDA-468 data.

[2] = test system: MDA-468 advanced breast cancer cell line; assay: MDA-468 tumour cell line cytotoxicity assay; assay type: cell-based, human; settings: for IC50: Homo sapiens, without TCDD; for Tumour Selectivity Differential Factor: IC50 MCF-10A divided by IC50 MDA-468 (Table 2)
Protocol: as §3, §4, §5, §6

[3] = non-induced MCF-7 cells, 96 hours, MTT, read-out: MCF-7 Cells IC50
[4] = prodrug / hydroxylated metabolite illustration, read-out: IC50 in breast cancer MCF-7 cells

## COc1cc(OC)cc(C(=O)/C=C/c2ccc(OC(C)C)cc2)c1 [DMU-401, (E)-1-(4-isopropoxyphenyl)-3-(3,5-dimethoxyphenyl)prop-1-en-3-one]
TCDD-induced MCF-7 cells
  IC50: 800 nM
  Tumour Selectivity Differential Factor: 9
MCF-7 cells; [3]
  IC50: 6800 nM

## CCCCOc1ccc(/C=C/C(=O)c2cc(OC)cc(OC)c2)cc1 [DMU-176, (E)-1-(4-butoxyphenyl)-3-(3,5-dimethoxyphenyl)prop-1-en-3-one]
TCDD-induced MCF-7 cells
  IC50: 1100 nM
  Tumour Selectivity Differential Factor: 18
MCF-7 cells; [3]
  IC50: 20000 nM

## CCCOc1ccc(/C=C/C(=O)c2ccc(OC)cc2OC)cc1 [DMU-408, (E)-1-(4-propoxyphenyl)-3-(2,4-dimethoxyphenyl)prop-1-en-3-one]
TCDD-induced MCF-7 cells
  IC50: 1300 nM
  Tumour Selectivity Differential Factor: 8
MCF-7 cells; [3]
  IC50: 10000 nM

## CCCOc1ccc(/C=C(\C)C(=O)c2cc(OC)cc(OC)c2)cc1 [DMU-432, (E)-1-(4-propoxyphenyl)-2-methyl-3-(3,5-dimethoxyphenyl)prop-1-en-3-one]
TCDD-induced MCF-7 cells
  IC50: 80 nM
  Tumour Selectivity Differential Factor: 9
MCF-7 cells; [3]
  IC50: 700 nM

## CCOc1ccc(/C=C/C(=O)c2cc(OC)c(OC)c(OC)c2)cc1 [DMU-190, (E)-1-(4-ethoxyphenyl)-3-(3,4,5-trimethoxyphenyl)prop-1-en-3-one]
TCDD-induced MCF-7 cells
  IC50: 390 nM
  Tumour Selectivity Differential Factor: 2
MCF-7 cells; [3]
  IC50: 750 nM

## CCCOc1ccc(/C=C/C(=O)c2cccc(OC)c2)cc1 [DMU-417, (E)-1-(4-propoxyphenyl)-3-(3-methoxyphenyl)prop-1-en-3-one]
TCDD-induced MCF-7 cells
  IC50: 10000 nM
  Tumour Selectivity Differential Factor: 3
MCF-7 cells; [3]
  IC50: 28000 nM

## COc1cc(OC)cc(C(=O)/C=C/c2ccc(OC(C)(C)C)cc2)c1 [DMU-402, (E)-1-(4-tertbutoxyphenyl)-3-(3,5-dimethoxyphenyl)prop-1-en-3-one, reference compound]
TCDD-induced MCF-7 cells
  IC50: 6200 nM
  Tumour Selectivity Differential Factor: 1
MCF-7 cells; [3]
  IC50: 6200 nM

## CCCCOc1ccc(/C=C/C(=O)c2cc(OC)c(OC)c(OC)c2)cc1O [DMU-189, (E)-1-(3-hydroxy-4-butoxyphenyl)-3-(3,4,5-trimethoxyphenyl)prop-1-en-3-one]
TCDD-induced MCF-7 cells
  IC50: 2500 nM
  Tumour Selectivity Differential Factor: 3
MCF-7 cells; [3]
  IC50: 8300 nM

## CCOc1ccc(/C=C/C(=O)c2cc(OC)cc(OC)c2)cc1 [DMU-174, (E)-1-(4-ethoxyphenyl)-3-(3,5-dimethoxyphenyl)prop-1-en-3-one]
TCDD-induced MCF-7 cells
  IC50: 600 nM
  Tumour Selectivity Differential Factor: 3
MCF-7 cells; [3]
  IC50: 2000 nM

## CN(Cc1cnc2nc(N)nc(N)c2n1)c1ccc(C(=O)N[C@@H](CCC(=O)O)C(=O)O)cc1 [Methotrexate, methotrexate]
[1]
  IC50: 60 nM
[2]
  IC50: 40 nM
  Tumour Selectivity Differential Factor: 1.5

## CCCOc1ccc(/C=C/C(=O)c2cc(OC)cc(OC)c2)cc1O [DMU-185, (E)-1-(3-hydroxy-4-propoxyphenyl)-3-(3,5-dimethoxyphenyl)prop-1-en-3-one]
TCDD-induced MCF-7 cells
  IC50: 660 nM
  Tumour Selectivity Differential Factor: 12
MCF-7 cells; [3]
  IC50: 8000 nM

## CCCOc1ccc(/C=C/C(=O)c2cc(OC)c(OC)c(OC)c2)cc1 [DMU-191, (E)-1-(4-propoxyphenyl)-3-(3,4,5-trimethoxyphenyl)prop-1-en-3-one]
TCDD-induced MCF-7 cells
  IC50: 420 nM
  Tumour Selectivity Differential Factor: 24
  more toxic to “tumour” cells than to “normal” cells: 24 fold
MCF-7 cells; [3]
  IC50: 10000 nM

## COc1ccc(/C=C/C(=O)c2cc(OC)cc(OC)c2)cc1 [(E)-1-(4-methoxyphenyl)-3-(3,5-dimethoxyphenyl)prop-1-en-3-one, reference compound]
MCF-7 cells; [4]
  IC50: 690 nM

## CCCCOc1ccc(/C=C/C(=O)c2cc(OC)c(OC)c(OC)c2)cc1 [DMU-192, (E)-1-(4-butoxyphenyl)-3-(3,4,5-trimethoxyphenyl)prop-1-en-3-one]
TCDD-induced MCF-7 cells
  IC50: 1600 nM
  Tumour Selectivity Differential Factor: 12
MCF-7 cells; [3]
  IC50: 20000 nM

## CCCOc1ccc(/C=C/C(=O)c2cc(OC)c(OC)c(OC)c2)cc1O [DMU-188, (E)-1-(3-hydroxy4-propoxyphenyl)-3-(3,4,5-trimethoxyphenyl)prop-1-en-3-one]
TCDD-induced MCF-7 cells
  IC50: 600 nM
  Tumour Selectivity Differential Factor: 8
MCF-7 cells; [3]
  IC50: 4500 nM

## CCCCOc1ccc(/C=C/C(=O)c2cc(OC)cc(OC)c2)cc1O [DMU-186, (E)-1-(3-hydroxy-4-butoxyphenyl)-3-(3,5-dimethoxyphenyl)prop-1-en-3-one]
TCDD-induced MCF-7 cells
  IC50: 650 nM
  Tumour Selectivity Differential Factor: 46
  more toxic to “tumour” cells than to “normal” cells: 46 fold
MCF-7 cells; [3]
  IC50: 30000 nM

## COc1cc(OC)cc(C(=O)/C=C/c2ccc(OC)c(O)c2)c1 [(E)-1-(3-Hydroxy-4-methoxyphenyl)-3-(3,5-dimethoxyphenyl)prop-1-en-3-one, reference compound]
MCF-7 cells; [4]
  IC50: 0.65 nM

## COc1cccc2c1C(=O)c1c(O)c3c(c(O)c1C2=O)C[C@@](O)(C(=O)CO)C[C@@H]3O[C@H]1C[C@H](N)[C@H](O)[C@H](C)O1 [Doxorubicin, doxorubicin]
[1]
  IC50: 0.3 nM
[2]
  IC50: 3 nM
  Tumour Selectivity Differential Factor: 0.1
[2]; MCF-10A versus MDA-468
  more toxic to normal cells than to cancer cells: 10 fold

## CCCOc1ccc(/C=C/C(=O)c2ccc(OC)c(OC)c2OC)cc1 [DMU-420, (E)-1-(4-propoxyphenyl)-3-(2,3,4-trimethoxyphenyl)prop-1-en-3-one]
TCDD-induced MCF-7 cells
  IC50: 3700 nM
  Tumour Selectivity Differential Factor: 5
MCF-7 cells; [3]
  IC50: 20000 nM

## CCCOc1ccc(/C=C/C(=O)c2cc(OC)ccc2OC)cc1 [DMU-424, (E)-1-(4-propoxyphenyl)-3-(2,5-dimethoxyphenyl)prop-1-en-3-one]
TCDD-induced MCF-7 cells
  IC50: 2000 nM
  Tumour Selectivity Differential Factor: 6
MCF-7 cells; [3]
  IC50: 12000 nM
